Measured values from patent publication US20240092835A1, “NOVEL PEPTIDES CAPABLE OF ALTERING NK CELL ACTIVITY” (Massachusetts Institute of Technology, priority 2022, published 2024).

Assays:
HLA-E = target: T1, HLA-E (Homo sapiens, UniProt P13747); assay: HLA-E surface stabilization assay with RMA-S/HLA-E cells; type: cell-based; conditions: 30 μM peptide, 16 hours; for HLA-E surface expression stability (GeoMFI): anti-HLA-E antibody
T1 construct: expressed in transfected cells; host or cells: RMA-S/HLA-E cells (antigen processing-defective lymphoma cell line)
T1 sequence (P13747 22-358): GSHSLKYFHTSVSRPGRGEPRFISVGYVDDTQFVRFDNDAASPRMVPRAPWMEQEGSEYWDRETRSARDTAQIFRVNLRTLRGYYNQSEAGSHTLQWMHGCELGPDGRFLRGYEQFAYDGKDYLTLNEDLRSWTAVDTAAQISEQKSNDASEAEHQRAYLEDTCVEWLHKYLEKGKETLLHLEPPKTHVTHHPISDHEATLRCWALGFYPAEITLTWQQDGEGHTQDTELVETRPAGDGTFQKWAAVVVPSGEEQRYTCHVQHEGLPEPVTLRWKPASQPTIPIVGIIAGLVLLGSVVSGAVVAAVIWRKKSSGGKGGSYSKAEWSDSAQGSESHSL
T1 sequence (P61769 21-119 partner): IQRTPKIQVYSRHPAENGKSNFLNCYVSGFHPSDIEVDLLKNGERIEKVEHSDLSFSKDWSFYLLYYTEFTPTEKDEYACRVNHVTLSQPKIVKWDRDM
Experimental: HLA-E surface expression was assessed by measuring geometric mean fluorescence intensity (GeoMFI) in RMA-S cells following immunofluorescence staining with an anti-HLA-E antibody (Table 14). Increased GeoMFI was indicative of increased HLA-E surface expression stability following novel peptide exposures (FIG. 3).

NKG2A−/NKG2C− NK cells = assay: NK cell activation markers in control NKG2A-/NKG2C- NK cells incubated with peptide and K562 expressing HLA-E; type: cell-based, human
Experimental: (§1) A human immortalized myelogenous leukemia cell line (K562), which expresses HLA-E was incubated with novel peptides (Table 1) derived from the human proteome or human cytomegalovirus proteome. […] Controls assessments were also performed using NKG2A−/NKG2C− cells (Tables 10-13). Inhibition was indicated by a decrease in percent cells positive for cell surface markers, while activation was indicated by an increase in percent cells positive for cell surface markers.

NKG2A−/NKG2C+ NK cells = assay: NK cell activation markers in NKG2A-/NKG2C+ NK cells incubated with peptide and K562 expressing HLA-E (activation); type: cell-based, human; conditions: for effect on NKG2A−/NKG2C+ NK cell activation (in words): K562 expressing HLA-E, CD107a, IFNG, TNF, CCL3; for percentage of CCL3+ NK cells / percentage of CD107+ NK cells / percentage of IFNG+ NK cells / percentage of TNF+ NK cells: NKG2A-/NKG2C+ NK cells, K562/HLA-E
Experimental: as §1

NKG2A+/NKG2C− NK cells = assay: NK cell activation markers in NKG2A+/NKG2C- NK cells incubated with peptide and K562 expressing HLA-E (inhibition); type: cell-based, human; conditions: for effect on NKG2A+/NKG2C− NK cell inhibition (in words): K562 expressing HLA-E, CD107a, IFNG, TNF, CCL3; for percentage of CCL3+ NK cells / percentage of CD107a+ NK cells / percentage of IFNG+ NK cells / percentage of TNF+ NK cells: NKG2A+/NKG2C- NK cells, K562/HLA-E
Experimental: as §1

ILTDRSLWL [human4, peptide FBXO41 670-678 derived from the human proteome]
HLA-E surface expression stability (GeoMFI) (HLA-E; Trial 1): 1174 GeoMFI
HLA-E surface expression stability (GeoMFI) (HLA-E; Trial 2): 921 GeoMFI
HLA-E surface expression stability (GeoMFI) (HLA-E; Trial 3): 887 GeoMFI
HLA-E surface expression stability (GeoMFI) (HLA-E; Trial 4): 1378 GeoMFI
HLA-E surface expression stabilization strength, approximate GeoMFI (HLA-E; approximate value): approximately 1×10^3 GeoMFI
percentage CCL3+ NK cells (NKG2A−/NKG2C− NK cells; Trial 1): 37.2%
percentage CD107+ NK cells (NKG2A−/NKG2C− NK cells; Trial 1): 27.2%
percentage TNF+ NK cells (NKG2A−/NKG2C− NK cells; Trial 1): 3.99%
percentage of IFNG+ NK cells (NKG2A−/NKG2C− NK cells; Trial 1): 15.4%
percentage CCL3+ NK cells (NKG2A−/NKG2C− NK cells; Trial 2): 56.3%
percentage CD107+ NK cells (NKG2A−/NKG2C− NK cells; Trial 2): 33.5%
percentage TNF+ NK cells (NKG2A−/NKG2C− NK cells; Trial 2): 7.5%
percentage of IFNG+ NK cells (NKG2A−/NKG2C− NK cells; Trial 2): 20.8%
percentage CCL3+ NK cells (NKG2A−/NKG2C− NK cells; Trial 3): 48.3%
percentage CD107+ NK cells (NKG2A−/NKG2C− NK cells; Trial 3): 44%
percentage TNF+ NK cells (NKG2A−/NKG2C− NK cells; Trial 3): 13.8%
percentage of IFNG+ NK cells (NKG2A−/NKG2C− NK cells; Trial 3): 33.7%
percentage CCL3+ NK cells (NKG2A−/NKG2C− NK cells; Trial 4): 35.9%
percentage CD107+ NK cells (NKG2A−/NKG2C− NK cells; Trial 4): 32.1%
percentage TNF+ NK cells (NKG2A−/NKG2C− NK cells; Trial 4): 10.2%
percentage of IFNG+ NK cells (NKG2A−/NKG2C− NK cells; Trial 4): 19.3%
percentage CCL3+ NK cells (NKG2A−/NKG2C− NK cells; Trial 5): 25%
percentage CD107+ NK cells (NKG2A−/NKG2C− NK cells; Trial 5): 19.2%
percentage TNF+ NK cells (NKG2A−/NKG2C− NK cells; Trial 5): 5.02%
percentage of IFNG+ NK cells (NKG2A−/NKG2C− NK cells; Trial 5): 13.7%
percentage CCL3+ NK cells (NKG2A−/NKG2C− NK cells; Trial 6): 25.1%
percentage CD107+ NK cells (NKG2A−/NKG2C− NK cells; Trial 6): 22.6%
percentage TNF+ NK cells (NKG2A−/NKG2C− NK cells; Trial 6): 5.37%
percentage of IFNG+ NK cells (NKG2A−/NKG2C− NK cells; Trial 6): 12.1%
effect on NKG2A−/NKG2C+ NK cell activation (in words) (NKG2A−/NKG2C+ NK cells): strong activating effects
percentage of CCL3+ NK cells (NKG2A−/NKG2C+ NK cells; Trial 1): 77.9%
percentage of CD107+ NK cells (NKG2A−/NKG2C+ NK cells; Trial 1): 76.7%
percentage of IFNG+ NK cells (NKG2A−/NKG2C+ NK cells; Trial 1): 62.2%
percentage of TNF+ NK cells (NKG2A−/NKG2C+ NK cells; Trial 1): 49.6%
percentage of CCL3+ NK cells (NKG2A−/NKG2C+ NK cells; Trial 2): 87.9%
percentage of CD107+ NK cells (NKG2A−/NKG2C+ NK cells; Trial 2): 79.5%
percentage of IFNG+ NK cells (NKG2A−/NKG2C+ NK cells; Trial 2): 70.5%
percentage of TNF+ NK cells (NKG2A−/NKG2C+ NK cells; Trial 2): 57.3%
percentage of CCL3+ NK cells (NKG2A−/NKG2C+ NK cells; Trial 3): 84.4%
percentage of CD107+ NK cells (NKG2A−/NKG2C+ NK cells; Trial 3): 84.8%
percentage of IFNG+ NK cells (NKG2A−/NKG2C+ NK cells; Trial 3): 75.9%
percentage of TNF+ NK cells (NKG2A−/NKG2C+ NK cells; Trial 3): 65.5%
percentage of CCL3+ NK cells (NKG2A−/NKG2C+ NK cells; Trial 4): 74%
percentage of CD107+ NK cells (NKG2A−/NKG2C+ NK cells; Trial 4): 73.4%
percentage of IFNG+ NK cells (NKG2A−/NKG2C+ NK cells; Trial 4): 66.6%
percentage of TNF+ NK cells (NKG2A−/NKG2C+ NK cells; Trial 4): 57.4%
percentage of CCL3+ NK cells (NKG2A−/NKG2C+ NK cells; Trial 5): 81.2%
percentage of CD107+ NK cells (NKG2A−/NKG2C+ NK cells; Trial 5): 77.9%
percentage of IFNG+ NK cells (NKG2A−/NKG2C+ NK cells; Trial 5): 70.4%
percentage of TNF+ NK cells (NKG2A−/NKG2C+ NK cells; Trial 5): 64.7%
percentage of CCL3+ NK cells (NKG2A−/NKG2C+ NK cells; Trial 6): 64.6%
percentage of CD107+ NK cells (NKG2A−/NKG2C+ NK cells; Trial 6): 64.2%
percentage of IFNG+ NK cells (NKG2A−/NKG2C+ NK cells; Trial 6): 54%
percentage of TNF+ NK cells (NKG2A−/NKG2C+ NK cells; Trial 6): 43%
effect on NKG2A+/NKG2C− NK cell inhibition (in words) (NKG2A+/NKG2C− NK cells): mild inhibitory effects
percentage of CCL3+ NK cells (NKG2A+/NKG2C− NK cells; Trial 1): 35.5%
percentage of CD107a+ NK cells (NKG2A+/NKG2C− NK cells; Trial 1): 16.9%
percentage of IFNG+ NK cells (NKG2A+/NKG2C− NK cells; Trial 1): 5.47%
percentage of TNF+ NK cells (NKG2A+/NKG2C− NK cells; Trial 1): 1.97%
percentage of CCL3+ NK cells (NKG2A+/NKG2C− NK cells; Trial 2): 56.4%
percentage of CD107a+ NK cells (NKG2A+/NKG2C− NK cells; Trial 2): 23.7%
percentage of IFNG+ NK cells (NKG2A+/NKG2C− NK cells; Trial 2): 8.81%
percentage of TNF+ NK cells (NKG2A+/NKG2C− NK cells; Trial 2): 4.06%
percentage of CCL3+ NK cells (NKG2A+/NKG2C− NK cells; Trial 3): 34.7%
percentage of CD107a+ NK cells (NKG2A+/NKG2C− NK cells; Trial 3): 22%
percentage of IFNG+ NK cells (NKG2A+/NKG2C− NK cells; Trial 3): 13.3%
percentage of TNF+ NK cells (NKG2A+/NKG2C− NK cells; Trial 3): 7.29%
percentage of CCL3+ NK cells (NKG2A+/NKG2C− NK cells; Trial 4): 16.1%
percentage of CD107a+ NK cells (NKG2A+/NKG2C− NK cells; Trial 4): 15%
percentage of IFNG+ NK cells (NKG2A+/NKG2C− NK cells; Trial 4): 3.31%
percentage of TNF+ NK cells (NKG2A+/NKG2C− NK cells; Trial 4): 2.82%
percentage of CCL3+ NK cells (NKG2A+/NKG2C− NK cells; Trial 5): 32.7%
percentage of CD107a+ NK cells (NKG2A+/NKG2C− NK cells; Trial 5): 14.8%
percentage of IFNG+ NK cells (NKG2A+/NKG2C− NK cells; Trial 5): 6.82%
percentage of TNF+ NK cells (NKG2A+/NKG2C− NK cells; Trial 5): 3.39%
percentage of CCL3+ NK cells (NKG2A+/NKG2C− NK cells; Trial 6): 13.4%
percentage of CD107a+ NK cells (NKG2A+/NKG2C− NK cells; Trial 6): 12.8%
percentage of IFNG+ NK cells (NKG2A+/NKG2C− NK cells; Trial 6): 3.02%
percentage of TNF+ NK cells (NKG2A+/NKG2C− NK cells; Trial 6): 2.79%

RMPPRSVLL [human12]
HLA-E surface expression stability (GeoMFI) (HLA-E; Trial 1): 3779 GeoMFI
HLA-E surface expression stability (GeoMFI) (HLA-E; Trial 2): 4219 GeoMFI
HLA-E surface expression stability (GeoMFI) (HLA-E; Trial 3): 4273 GeoMFI
HLA-E surface expression stability (GeoMFI) (HLA-E; Trial 4): 4705 GeoMFI
percentage CCL3+ NK cells (NKG2A−/NKG2C− NK cells; Trial 1): 29.3%
percentage CD107+ NK cells (NKG2A−/NKG2C− NK cells; Trial 1): 20.2%
percentage TNF+ NK cells (NKG2A−/NKG2C− NK cells; Trial 1): 3.43%
percentage of IFNG+ NK cells (NKG2A−/NKG2C− NK cells; Trial 1): 10.2%
percentage CCL3+ NK cells (NKG2A−/NKG2C− NK cells; Trial 2): 51.6%
percentage CD107+ NK cells (NKG2A−/NKG2C− NK cells; Trial 2): 29%
percentage TNF+ NK cells (NKG2A−/NKG2C− NK cells; Trial 2): 9.58%
percentage of IFNG+ NK cells (NKG2A−/NKG2C− NK cells; Trial 2): 24%
percentage CCL3+ NK cells (NKG2A−/NKG2C− NK cells; Trial 3): 46.5%
percentage CD107+ NK cells (NKG2A−/NKG2C− NK cells; Trial 3): 42%
percentage TNF+ NK cells (NKG2A−/NKG2C− NK cells; Trial 3): 15.5%
percentage of IFNG+ NK cells (NKG2A−/NKG2C− NK cells; Trial 3): 36.2%
effect on NKG2A−/NKG2C+ NK cell activation (in words) (NKG2A−/NKG2C+ NK cells; listed as SEQ ID NO. 13): strong activating effects
effect on NKG2A−/NKG2C+ NK cell activation (in words) (NKG2A−/NKG2C+ NK cells; listed as h12): strong inhibitory and activating effects
percentage of CCL3+ NK cells (NKG2A−/NKG2C+ NK cells; Trial 1): 55.3%
percentage of CD107+ NK cells (NKG2A−/NKG2C+ NK cells; Trial 1): 36.5%
percentage of IFNG+ NK cells (NKG2A−/NKG2C+ NK cells; Trial 1): 20.7%
percentage of TNF+ NK cells (NKG2A−/NKG2C+ NK cells; Trial 1): 12.6%
percentage of CCL3+ NK cells (NKG2A−/NKG2C+ NK cells; Trial 2): 83.9%
percentage of CD107+ NK cells (NKG2A−/NKG2C+ NK cells; Trial 2): 77%
percentage of IFNG+ NK cells (NKG2A−/NKG2C+ NK cells; Trial 2): 63.3%
percentage of TNF+ NK cells (NKG2A−/NKG2C+ NK cells; Trial 2): 52.7%
percentage of CCL3+ NK cells (NKG2A−/NKG2C+ NK cells; Trial 3): 81.7%
percentage of CD107+ NK cells (NKG2A−/NKG2C+ NK cells; Trial 3): 80.3%
percentage of IFNG+ NK cells (NKG2A−/NKG2C+ NK cells; Trial 3): 66.3%
percentage of TNF+ NK cells (NKG2A−/NKG2C+ NK cells; Trial 3): 59.6%
effect on NKG2A+/NKG2C− NK cell inhibition (in words) (NKG2A+/NKG2C− NK cells): strong inhibitory
percentage of CCL3+ NK cells (NKG2A+/NKG2C− NK cells; Trial 1): 1.94%
percentage of CD107a+ NK cells (NKG2A+/NKG2C− NK cells; Trial 1): 0.85%
percentage of IFNG+ NK cells (NKG2A+/NKG2C− NK cells; Trial 1): 0.14%
percentage of TNF+ NK cells (NKG2A+/NKG2C− NK cells; Trial 1): 0.03%
percentage of CCL3+ NK cells (NKG2A+/NKG2C− NK cells; Trial 2): 2.96%
percentage of CD107a+ NK cells (NKG2A+/NKG2C− NK cells; Trial 2): 0.99%
percentage of IFNG+ NK cells (NKG2A+/NKG2C− NK cells; Trial 2): 0.32%
percentage of TNF+ NK cells (NKG2A+/NKG2C− NK cells; Trial 2): 0.17%
percentage of CCL3+ NK cells (NKG2A+/NKG2C− NK cells; Trial 3): 2.9%
percentage of CD107a+ NK cells (NKG2A+/NKG2C− NK cells; Trial 3): 1.25%
percentage of IFNG+ NK cells (NKG2A+/NKG2C− NK cells; Trial 3): 0.65%
percentage of TNF+ NK cells (NKG2A+/NKG2C− NK cells; Trial 3): 0.45%
